According to ChEMBL document CHEMBL5715949, “Discovery of a selective irreversible BMX inhibitor for prostate cancer” (ACS Chem Biol, 2013):
Activity calls are given as the source filed them. No cut-off for these calls is given here.

Key:
[1] = target: Peripheral plasma membrane protein CASK (Homo sapiens) (UniProt O14936); test: Inhibition of CASK (unknown origin) assessed as remaining activity at 1 uM by Kinome scan method relative to control
[2] = target: Receptor-interacting serine/threonine-protein kinase 1 (Homo sapiens) (UniProt Q13546); test: Inhibition of RIPK1 (unknown origin) assessed as remaining activity at 1 uM by Kinome scan method relative to control
[3] = target: Mitogen-activated protein kinase 1 (Homo sapiens) (UniProt P28482); test: Inhibition of ERK2 (unknown origin) assessed as remaining activity at 1 uM by Kinome scan method relative to control
[4] = target: BMP-2-inducible protein kinase (Homo sapiens) (UniProt Q9NSY1); test: Inhibition of BIKE (unknown origin) assessed as remaining activity at 1 uM by Kinome scan method relative to control
[5] = target: Serine/threonine-protein kinase DCLK3 (Homo sapiens) (UniProt Q9C098); test: Inhibition of DCAMKL3 (unknown origin) assessed as remaining activity at 1 uM by Kinome scan method relative to control
[6] = target: Myosin light chain kinase 2, skeletal/cardiac muscle (Homo sapiens) (UniProt Q9H1R3); test: Inhibition of MYLK2 (unknown origin) assessed as remaining activity at 1 uM by Kinome scan method relative to control
[7] = target: Serine/threonine-protein kinase ULK1 (Homo sapiens) (UniProt O75385); test: Inhibition of ULK1 (unknown origin) assessed as remaining activity at 1 uM by Kinome scan method relative to control
[8] = target: Dual specificity protein kinase CLK4 (Homo sapiens) (UniProt Q9HAZ1); test: Inhibition of CLK4 (unknown origin) assessed as remaining activity at 1 uM by Kinome scan method relative to control
[9] = Inhibition of PI3K/AKT/mTOR signalling pathway in human RV-1 cells assessed as decrease in 4EBP phosphorylation at T37/46 residue at 2.5 uM incubated for 4 hrs by immunoblot analysis; assay type: cell-based
RV-1 [10] = test: Antiproliferative activity against human RV-1 cells assessed as reduction in cell viability at 500 to 2500 nM incubated for 5 days in presence of lapatinib by CellTiter-Glo assay; assay type: functional, cell-based; conditions: dose 500-2500 nM, time 5.0 day
[11] = target: Tyrosine-protein kinase CSK (Homo sapiens) (UniProt P41240); test: Inhibition of CSK (unknown origin) assessed as remaining activity at 1 uM by Kinome scan method relative to control
[12] = target: Membrane-associated tyrosine- and threonine-specific cdc2-inhibitory kinase (Homo sapiens) (UniProt Q99640); test: Inhibition of PKMYT1 (unknown origin) assessed as remaining activity at 1 uM by Kinome scan method relative to control
[13] = target: Ribosomal protein S6 kinase alpha-1 (Homo sapiens) (UniProt Q15418); test: Inhibition of N-terminal kinase domain RSK1 (unknown origin) assessed as remaining activity at 1 uM by Kinome scan method relative to control
[14] = target: Serine/threonine-protein kinase PAK 2 (Homo sapiens) (UniProt Q13177); test: Inhibition of PAK2 (unknown origin) assessed as remaining activity at 1 uM by Kinome scan method relative to control
[15] = Inhibition of PI3K/AKT/mTOR signalling pathway in human RV-1 cells assessed as decrease in S6K phosphorylation at T389 residue at 2.5 uM incubated for 5 days by immunoblot analysis; assay type: cell-based; conditions: time 5.0 day
[16] = target: Mitogen-activated protein kinase 4 (Homo sapiens) (UniProt P31152); test: Inhibition of ERK4 (unknown origin) assessed as remaining activity at 1 uM by Kinome scan method relative to control
[17] = target: Tyrosine-protein kinase Mer (Homo sapiens) (UniProt Q12866); test: Inhibition of MERTK (unknown origin) assessed as remaining activity at 1 uM by Kinome scan method relative to control
RV-1 [18] = test: Antiproliferative activity against human RV-1 cells assessed as reduction in cell viability at 500 to 2500 nM incubated for 5 days in presence of Torin2 by CellTiter-Glo assay; assay type: functional, cell-based; conditions: dose 500-2500 nM, time 5.0 day
RV-1 [19] = test: Antiproliferative activity against human RV-1 cells assessed as reduction in cell viability at 500 to 2500 nM incubated for 5 days in presence of GDC0941 by CellTiter-Glo assay; assay type: functional, cell-based; conditions: dose 500-2500 nM, time 5.0 day
[20] = test system: Mast/stem cell growth factor receptor Kit (Homo sapiens), P10721 [D816V]; test: Inhibition of KIT D816V mutant (unknown origin) assessed as remaining activity at 1 uM by Kinome scan method relative to control
RV-1 [21] = test: Antiproliferative activity against human RV-1 cells assessed as reduction in cell viability at 500 to 2500 nM incubated for 5 days in presence of <25 nM MK2206 by CellTiter-Glo assay; assay type: functional, cell-based; conditions: dose 500-2500 nM, time 5.0 day
[22] = target: Mitogen-activated protein kinase 14 (Homo sapiens) (UniProt Q16539); test: Inhibition of P38alpha (unknown origin) assessed as remaining activity at 1 uM by Kinome scan method relative to control
[23] = target: Citron Rho-interacting kinase (Homo sapiens) (UniProt O14578); test: Inhibition of CIT (unknown origin) assessed as remaining activity at 1 uM by Kinome scan method relative to control
[24] = target: Mitogen-activated protein kinase kinase kinase 12 (Homo sapiens) (UniProt Q12852); test: Inhibition of DLK (unknown origin) assessed as remaining activity at 1 uM by Kinome scan method relative to control
[25] = target: Serine/threonine-protein kinase MARK2 (Homo sapiens) (UniProt Q7KZI7); test: Inhibition of MARK2 (unknown origin) assessed as remaining activity at 1 uM by Kinome scan method relative to control
[26] = Down regulation of BMX protein expression in human RV-1 cells expressing wild type BMX assessed protein expression level at 2.5 uM pre incubated for 4 hrs followed by compound wash out and additon of CHX and measured after 24 hrs by immunoblot analysis (reference value: 0.98 to 1.01); assay type: functional
[27] = target: Focal adhesion kinase 1 (Homo sapiens) (UniProt Q05397); test: Inhibition of FAK (unknown origin) assessed as remaining activity at 1 uM by Kinome scan method relative to control
[28] = Induction of cell cycle arrest in human RV-1 cells assessed as accumulation of cells at G1 phase at 2.5 uM incubated for 5 days in presence of MK2206 by propidium iodide staining based flow cytometric analysis (reference value: 59.7 %); assay type: functional; conditions: time 5 day
BaF3 = test: Antiproliferative activity against mouse BaF3 cells expressing TEL-fused TYK2 […] mutant assessed growth inhibition incubated for 2 to 5 days by CellTiter-Glo assay; assay type: functional; conditions: time 2-5 day
[29] = target: Megakaryocyte-associated tyrosine-protein kinase (Homo sapiens) (UniProt P42679); test: Inhibition of CTK (unknown origin) assessed as remaining activity at 1 uM by Kinome scan method relative to control
[30] = Inhibition of PI3K/AKT/mTOR signalling pathway in human RV-1 cells assessed as decrease in 4EBP phosphorylation at T37/46 residue at 2.5 uM incubated for 5 days by immunoblot analysis; assay type: cell-based; conditions: time 5.0 day
[31] = target: Phosphatidylinositol 4,5-bisphosphate 3-kinase catalytic subunit gamma isoform (Homo sapiens) (UniProt P48736); test: Inhibition of PIK3CG (unknown origin) assessed as remaining activity at 1 uM by Kinome scan method relative to control
Phosphatidylinositol 4,5-bisphosphate 3-kinase catalytic subunit gamma isoform (Homo sapiens), sequence (P48736 whole entry, looked up, canonical isoform): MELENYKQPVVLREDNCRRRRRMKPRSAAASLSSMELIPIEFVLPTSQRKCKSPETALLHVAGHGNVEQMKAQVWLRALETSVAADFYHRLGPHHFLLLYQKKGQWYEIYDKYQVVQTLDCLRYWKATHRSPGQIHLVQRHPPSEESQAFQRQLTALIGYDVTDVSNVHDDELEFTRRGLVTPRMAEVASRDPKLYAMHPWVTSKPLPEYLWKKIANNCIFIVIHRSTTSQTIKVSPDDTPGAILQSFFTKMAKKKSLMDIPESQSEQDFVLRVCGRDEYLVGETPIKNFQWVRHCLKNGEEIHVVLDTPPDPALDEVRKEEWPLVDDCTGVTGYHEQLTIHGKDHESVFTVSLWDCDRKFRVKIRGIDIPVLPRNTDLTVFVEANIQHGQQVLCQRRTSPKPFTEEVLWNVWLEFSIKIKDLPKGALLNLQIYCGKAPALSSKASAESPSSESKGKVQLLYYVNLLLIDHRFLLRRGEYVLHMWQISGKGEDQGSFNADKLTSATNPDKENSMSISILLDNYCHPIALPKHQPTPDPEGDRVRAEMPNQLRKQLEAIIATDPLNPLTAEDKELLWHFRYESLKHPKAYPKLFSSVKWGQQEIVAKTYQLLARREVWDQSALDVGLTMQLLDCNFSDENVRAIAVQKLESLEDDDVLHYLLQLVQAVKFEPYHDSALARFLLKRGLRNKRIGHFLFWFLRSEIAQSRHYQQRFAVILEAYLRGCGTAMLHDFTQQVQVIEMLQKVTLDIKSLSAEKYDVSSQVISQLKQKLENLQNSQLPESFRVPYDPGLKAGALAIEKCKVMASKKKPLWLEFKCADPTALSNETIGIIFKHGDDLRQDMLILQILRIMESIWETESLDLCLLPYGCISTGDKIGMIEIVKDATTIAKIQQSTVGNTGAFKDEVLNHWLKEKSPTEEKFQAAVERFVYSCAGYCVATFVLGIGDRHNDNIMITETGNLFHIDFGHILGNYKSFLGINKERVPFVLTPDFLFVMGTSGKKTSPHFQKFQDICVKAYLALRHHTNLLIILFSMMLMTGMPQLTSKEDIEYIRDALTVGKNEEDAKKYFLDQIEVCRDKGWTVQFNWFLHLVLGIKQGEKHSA

Serine/threonine-protein kinase PAK 2 (Homo sapiens), sequence (Q13177 whole entry): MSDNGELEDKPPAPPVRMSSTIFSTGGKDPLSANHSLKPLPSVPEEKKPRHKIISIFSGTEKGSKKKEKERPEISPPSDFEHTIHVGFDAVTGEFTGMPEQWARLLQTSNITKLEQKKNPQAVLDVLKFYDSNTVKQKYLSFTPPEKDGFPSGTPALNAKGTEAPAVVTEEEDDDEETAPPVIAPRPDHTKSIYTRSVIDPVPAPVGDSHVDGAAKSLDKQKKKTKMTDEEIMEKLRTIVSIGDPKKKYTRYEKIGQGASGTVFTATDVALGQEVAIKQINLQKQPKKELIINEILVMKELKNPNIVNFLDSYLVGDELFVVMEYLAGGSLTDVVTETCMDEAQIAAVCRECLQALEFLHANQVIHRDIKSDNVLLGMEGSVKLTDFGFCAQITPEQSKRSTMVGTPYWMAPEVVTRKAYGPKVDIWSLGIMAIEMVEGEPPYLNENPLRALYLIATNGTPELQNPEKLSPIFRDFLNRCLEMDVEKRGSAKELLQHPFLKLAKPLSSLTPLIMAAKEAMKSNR
Dual specificity protein kinase CLK4 (Homo sapiens), sequence (Q9HAZ1 whole entry, looked up): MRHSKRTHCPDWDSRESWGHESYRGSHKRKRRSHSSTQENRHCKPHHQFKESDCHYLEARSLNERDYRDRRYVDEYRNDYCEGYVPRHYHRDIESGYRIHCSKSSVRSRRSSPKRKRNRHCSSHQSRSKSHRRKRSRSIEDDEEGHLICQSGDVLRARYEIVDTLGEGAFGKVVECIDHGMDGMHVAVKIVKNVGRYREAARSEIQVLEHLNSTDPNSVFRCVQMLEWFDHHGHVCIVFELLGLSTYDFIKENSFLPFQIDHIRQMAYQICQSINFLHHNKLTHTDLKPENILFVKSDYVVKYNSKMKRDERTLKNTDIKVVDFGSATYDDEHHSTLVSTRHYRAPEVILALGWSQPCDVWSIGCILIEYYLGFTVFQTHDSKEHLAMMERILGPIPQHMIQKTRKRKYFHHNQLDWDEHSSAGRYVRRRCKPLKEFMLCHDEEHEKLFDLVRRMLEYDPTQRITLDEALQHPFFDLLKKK
Focal adhesion kinase 1 (Homo sapiens), sequence (Q05397 2-1052 limits assumed): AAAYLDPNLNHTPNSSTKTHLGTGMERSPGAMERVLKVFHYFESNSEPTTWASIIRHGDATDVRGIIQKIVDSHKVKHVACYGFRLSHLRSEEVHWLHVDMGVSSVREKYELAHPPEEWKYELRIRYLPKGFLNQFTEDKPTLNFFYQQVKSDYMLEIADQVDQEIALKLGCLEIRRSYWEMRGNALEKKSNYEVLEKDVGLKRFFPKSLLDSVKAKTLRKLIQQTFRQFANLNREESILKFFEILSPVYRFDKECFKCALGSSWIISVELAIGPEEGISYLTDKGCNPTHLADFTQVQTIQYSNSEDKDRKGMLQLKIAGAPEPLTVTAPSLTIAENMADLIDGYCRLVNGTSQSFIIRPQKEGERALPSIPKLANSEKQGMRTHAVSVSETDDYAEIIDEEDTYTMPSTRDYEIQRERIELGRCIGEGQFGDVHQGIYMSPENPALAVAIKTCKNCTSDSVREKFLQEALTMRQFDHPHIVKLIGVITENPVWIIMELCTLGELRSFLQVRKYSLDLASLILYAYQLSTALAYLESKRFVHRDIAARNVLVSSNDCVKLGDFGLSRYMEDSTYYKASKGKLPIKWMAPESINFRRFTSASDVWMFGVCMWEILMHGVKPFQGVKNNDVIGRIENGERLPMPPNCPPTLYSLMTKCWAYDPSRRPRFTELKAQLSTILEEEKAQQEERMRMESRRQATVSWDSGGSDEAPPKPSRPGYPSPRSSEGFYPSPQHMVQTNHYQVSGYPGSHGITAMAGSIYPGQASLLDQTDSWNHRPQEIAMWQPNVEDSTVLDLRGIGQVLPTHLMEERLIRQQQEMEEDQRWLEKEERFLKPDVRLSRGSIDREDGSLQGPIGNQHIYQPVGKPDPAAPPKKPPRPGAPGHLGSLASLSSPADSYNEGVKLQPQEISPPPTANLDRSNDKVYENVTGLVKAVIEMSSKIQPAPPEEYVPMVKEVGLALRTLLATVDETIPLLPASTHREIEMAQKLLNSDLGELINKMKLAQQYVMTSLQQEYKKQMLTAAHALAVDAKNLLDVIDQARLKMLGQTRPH
Peripheral plasma membrane protein CASK (Homo sapiens), sequence (O14936 whole entry): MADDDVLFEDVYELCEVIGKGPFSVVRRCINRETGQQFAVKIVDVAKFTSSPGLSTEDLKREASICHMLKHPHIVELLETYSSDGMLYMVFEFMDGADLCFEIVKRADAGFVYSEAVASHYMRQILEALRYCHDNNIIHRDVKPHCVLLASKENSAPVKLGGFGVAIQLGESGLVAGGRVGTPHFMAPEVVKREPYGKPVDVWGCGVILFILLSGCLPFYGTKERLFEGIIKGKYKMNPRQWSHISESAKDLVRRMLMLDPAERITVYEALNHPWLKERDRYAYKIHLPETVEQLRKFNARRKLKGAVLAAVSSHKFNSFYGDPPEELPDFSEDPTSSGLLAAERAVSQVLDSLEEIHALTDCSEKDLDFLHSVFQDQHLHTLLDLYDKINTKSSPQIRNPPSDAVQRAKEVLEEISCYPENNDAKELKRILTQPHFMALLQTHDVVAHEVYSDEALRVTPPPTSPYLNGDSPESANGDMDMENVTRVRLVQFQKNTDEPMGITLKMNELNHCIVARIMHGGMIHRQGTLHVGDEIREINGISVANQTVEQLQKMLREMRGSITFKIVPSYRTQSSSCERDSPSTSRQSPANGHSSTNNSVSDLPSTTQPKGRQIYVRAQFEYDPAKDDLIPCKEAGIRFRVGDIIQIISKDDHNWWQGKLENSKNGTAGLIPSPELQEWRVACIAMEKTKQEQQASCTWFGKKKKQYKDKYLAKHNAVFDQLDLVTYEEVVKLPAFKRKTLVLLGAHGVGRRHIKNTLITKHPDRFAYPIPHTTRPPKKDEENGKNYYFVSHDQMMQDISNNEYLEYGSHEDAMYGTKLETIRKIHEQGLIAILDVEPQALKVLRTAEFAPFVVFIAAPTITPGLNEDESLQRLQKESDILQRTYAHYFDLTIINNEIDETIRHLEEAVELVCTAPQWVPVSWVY
Membrane-associated tyrosine- and threonine-specific cdc2-inhibitory kinase (Homo sapiens), sequence (Q99640 whole entry, the tested form may be a part): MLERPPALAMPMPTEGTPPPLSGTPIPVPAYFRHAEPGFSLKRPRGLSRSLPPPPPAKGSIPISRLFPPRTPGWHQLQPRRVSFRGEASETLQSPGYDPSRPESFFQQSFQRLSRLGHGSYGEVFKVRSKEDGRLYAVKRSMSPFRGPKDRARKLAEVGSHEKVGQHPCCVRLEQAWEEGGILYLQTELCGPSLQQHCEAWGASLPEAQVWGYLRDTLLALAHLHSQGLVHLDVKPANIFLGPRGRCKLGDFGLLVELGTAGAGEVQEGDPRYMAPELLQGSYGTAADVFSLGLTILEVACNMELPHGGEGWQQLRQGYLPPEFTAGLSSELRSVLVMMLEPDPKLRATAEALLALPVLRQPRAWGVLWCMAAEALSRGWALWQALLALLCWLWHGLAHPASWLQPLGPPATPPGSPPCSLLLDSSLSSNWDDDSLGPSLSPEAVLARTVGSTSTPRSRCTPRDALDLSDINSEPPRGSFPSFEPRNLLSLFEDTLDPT
Mitogen-activated protein kinase 14 (Homo sapiens), sequence (Q16539 whole entry): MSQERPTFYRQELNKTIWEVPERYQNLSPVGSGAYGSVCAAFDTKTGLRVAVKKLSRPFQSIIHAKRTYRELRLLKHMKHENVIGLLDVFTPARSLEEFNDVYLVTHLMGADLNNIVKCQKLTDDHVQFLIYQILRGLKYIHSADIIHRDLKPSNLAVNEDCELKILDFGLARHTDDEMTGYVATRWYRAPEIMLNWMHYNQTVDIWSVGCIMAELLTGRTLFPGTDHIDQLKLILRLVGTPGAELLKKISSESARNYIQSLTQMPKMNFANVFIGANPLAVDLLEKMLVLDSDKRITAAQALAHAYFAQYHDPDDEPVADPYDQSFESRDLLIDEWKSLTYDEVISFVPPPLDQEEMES

## C=CC(=O)Nc1cc(-n2c(=O)ccc3cnc4ccc(-c5ccc(NS(C)(=O)=O)cc5)cc4c32)ccc1C
[1]
  Activity: 61%
[2]
  Activity: 87%
[3]
  Activity: 94%
[4]
  Activity: 76%
[5]
  Activity: 94%
[6]
  Activity: 93%
[7]
  Activity: 84%
[8]
  Activity: 99%
[9]
  inhibition: inactive
RV-1 [10]
  Activity: Active
[11]
  Activity: 99%
[12]
  Activity: 77%
[13]
  Activity: 76%
[14]
  Activity: 78%
[15]
  inhibition: Active
[16]
  Activity: 91%
[17]
  Activity: 72%
RV-1 [18]
  Activity: Active
RV-1 [19]
  Activity: Active
[20]
  Activity: 69%
RV-1 [21]
  Activity: Active
[22]
  Activity: 98%
[23]
  Activity: 83%
[24]
  Activity: 70%
[25]
  Activity: 94%
[26]
  Activity: 0.32
[27]
  Activity: 96%
[28]
  Activity: 64.2%
BaF3
  GI50: 6.09 µM
[29]
  Activity: 92%
[30]
  inhibition: Active
[31]
  Activity: 2.8%
